Reference: patent publication US12527325B2, “Pesticidally active diazine-amide compounds” (SYNGENTA CROP PROTECTION AG, priority 2019, dated 2026)

Experiments:
Type in all cases: in vivo
Plutella xylostella [1] = experiment: Example B12: Plutella xylostella (Diamondback Moth), 96-well artificial diet; details: 216 h, application rate of 500 ppm, eggs, 9 days after infestation
Experimental: Example B12: Plutella xylostella (Diamondback Moth)
96-well microtiter plates containing artificial diet were treated with aqueous test solutions, prepared from 10′000 ppm DMSO stock solutions, by a liquid handling robot. After drying, eggs (˜30 per well) were infested onto a netted lid which was suspended above the diet. The eggs hatch and L1 larvae move down to the diet. The samples were assessed for mortality 9 days after infestation.

Plutella xylostella [2] = experiment: Example B5: Plutella xylostella (Diamond Back Moth); details: 192 h, application rate of 200 ppm, 24-well artificial diet, eggs, 8 days after infestation, read-out: control in at least one of the two categories (mortality or growth inhibition)
Experimental: Example B5: Plutella xylostella (Diamond Back Moth)
24-well microtiter plates with artificial diet were treated with aqueous test solutions prepared from 10′000 ppm DMSO stock solutions by pipetting. After drying, Plutella eggs were pipetted through a plastic stencil onto a gel blotting paper and the plate was closed with it. The samples were assessed for mortality and growth inhibition in comparison to untreated samples 8 days after infestation.

Myzus persicae [3] = experiment: Example B11: Myzus persicae (Green Peach Aphid), 96-well sucrose solution; details: 120 h, application rate of 50 ppm, 96-well sucrose solution under Parafilm, 5 days after infestation
Excerpt: Example B11: Myzus persicae (Green Peach Aphid)
Test compounds prepared from 10′000 ppm DMSO stock solutions were applied by a liquid handling robot into 96-well microtiter plates and mixed with a sucrose solution. Parafilm was stretched over the 96-well microtiter plate and a plastic stencil with 96 holes was placed onto the plate. Aphids were sieved into the wells directly onto the Parafilm. The infested plates were closed with a gel blotting card and a second plastic stencil and then turned upside down. The samples were assessed for mortality 5 days after infestation.

Diabrotica balteata = experiment: Example B1: Diabrotica balteata (Corn Root Worm); details: 96 h, application rate of 200 ppm, sprayed maize sprouts, L2 larvae, 4 days after infestation, read-out: control in at least one of the two categories (mortality or growth inhibition)
Experimental: Example B1: Diabrotica balteata (Corn Root Worm)
Maize sprouts placed onto an agar layer in 24-well microtiter plates were treated with aqueous test solutions prepared from 10′000 ppm DMSO stock solutions by spraying. After drying, the plates were infested with L2 larvae (6 to 10 per well). The samples were assessed for mortality and growth inhibition in comparison to untreated samples 4 days after infestation.

Spodoptera littoralis = experiment: Example B9: Spodoptera littoralis (Egyptian Cotton Leaf Worm), cotton leaf disc spray; details: foliar, 72 h, application rate of 200 ppm, sprayed cotton leaf discs, L1 larvae, 3 days after infestation, read-out: control in at least one of the three categories (mortality, anti-feedant or growth inhibition)
Chilo suppressalis = experiment: Example B4: Chilo suppressalis (Striped Rice Stemborer); details: 144 h, application rate of 200 ppm, artificial diet, L2 larvae, 6 days after infestation, read-out: control in at least one of the three categories (mortality, anti-feedant or growth inhibition)
Procedure, shortened: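 Artificial diet was treated with aqueous dilutions made from 10'000 ppm DMSO stocks, dried, then infested with L2 larvae at 6–8 per well. Mortality, antifeedant effect and growth inhibition were assessed against untreated samples 6 days after infestation.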

Euschistus heros = experiment: Example B2: Euschistus heros (Neotropical Brown Stink Bug); details: 120 h, application rate of 200 ppm, sprayed soybean leaves, N2 nymphs, 5 days after infestation, read-out: control in at least one of the two categories (mortality or growth inhibition)
Experimental: Example B2: Euschistus heros (Neotropical Brown Stink Bug)
Soybean leaves on agar in 24-well microtiter plates were sprayed with aqueous test solutions prepared from 10′000 ppm DMSO stock solutions. After drying the leaves were infested with N2 nymphs. The samples were assessed for mortality and growth inhibition in comparison to untreated samples 5 days after infestation.

Myzus persicae [4] = experiment: Example B8: Myzus persicae (Green Peach Aphid): Intrinsic Activity; details: 120 h, test rate of 12 ppm, 24-well sucrose solution under Parafilm, 5 days after infestation
Excerpt: Example B8: Myzus persicae (Green Peach Aphid): Intrinsic Activity
Test compounds prepared from 10′000 ppm DMSO stock solutions were applied by pipette into 24-well microtiter plates and mixed with sucrose solution. The plates were closed with a stretched Parafilm. A plastic stencil with 24 holes was placed onto the plate and infested pea seedlings were placed directly on the Parafilm. The infested plate was closed with a gel blotting paper and another plastic stencil and then turned upside down. The samples were assessed for mortality 5 days after infestation.

[5] = test system: Frankliniella occidentalis; experiment: Example B3: Frankliniella occidentalis (Western Flower Thrips): Feeding/Contact Activity; details: foliar, 168 h, application rate of 200 ppm, sprayed sunflower leaf discs, population of mixed ages, 7 days after infestation
Experimental: Example B3: Frankliniella occidentalis (Western Flower Thrips): Feeding/Contact Activity
Sunflower leaf discs were placed on agar in 24-well microtiter plates and sprayed with aqueous test solutions prepared from […] stock solutions. After drying the leaf discs were infested with a Frankliniella population of mixed ages. The samples were assessed for mortality 7 days after infestation.

Myzus persicae [6] = experiment: Example B7: Myzus persicae (Green Peach Aphid): Systemic Activity; details: 144 h, test rate of 24 ppm, roots of pea seedlings in test solution, 6 days
Experimental: Example B7: Myzus persicae (Green Peach Aphid): Systemic Activity
Roots of pea seedlings infested with an aphid population of mixed ages were placed directly into aqueous test solutions prepared from 10′000 DMSO stock solutions. The samples were assessed for mortality 6 days after placing seedlings into test solutions.

Myzus persicae [7] = experiment: Example B6: Myzus persicae (Green Peach Aphid): Feeding/Contact Activity; details: foliar, 144 h, application rate of 200 ppm, sprayed sunflower leaf discs, aphid population of mixed ages, 6 days after infestation
Experimental: Example B6: Myzus persicae (Green Peach Aphid): Feeding/Contact Activity
Sunflower leaf discs were placed onto agar in a 24-well microtiter plate and sprayed with aqueous test solutions prepared from 10′000 ppm DMSO stock solutions. After drying, the leaf discs were infested with an aphid population of mixed ages. The samples were assessed for mortality 6 days after infestation.

CC(NC(=O)c1cc(C(F)(F)F)nc(C2(C#N)CC2)c1)c1nccnc1-c1ccccn1 (centres unmarked) [P26, 2-(1-cyanocyclopropyl)-N-[1-[3-(2-pyridyl)pyrazin-2-yl]ethyl]-6-(trifluoromethyl)pyridine-4-carboxamide]
≥ 80%: mortality at 500 ppm (Plutella xylostella [1]) | percent control (mortality or growth inhibition) at 200 ppm (Plutella xylostella [2]) | mortality at 50 ppm (Myzus persicae [3]) | percent control (mortality or growth inhibition) at 200 ppm (Diabrotica balteata) | percent control (mortality, anti-feedant effect or growth inhibition) at 200 ppm (Spodoptera littoralis) | percent control (mortality, anti-feedant effect or growth inhibition) at 200 ppm (Chilo suppressalis)

CC(NC(=O)c1cc(C(F)(F)F)cc(C2(C#N)CC2)c1)c1nccnc1-c1ccc(F)cn1 (centres unmarked) [P23, 3-(1-cyanocyclopropyl)-N-[1-[3-(5-fluoro-2-pyridyl)pyrazin-2-yl]ethyl]-5-(trifluoromethyl) benzamide]
≥ 80%: mortality at 500 ppm (Plutella xylostella [1]) | percent control (mortality or growth inhibition) at 200 ppm (Plutella xylostella [2]) | mortality at 50 ppm (Myzus persicae [3])

CC(NC(=O)c1cc(C(F)(F)F)nc(C2(C#N)CC2)c1)c1nccnc1-c1ncccn1 (centres unmarked) [P32, 2-(1-cyanocyclopropyl)-N-[1-(3-pyrimidin-2-ylpyrazin-2-yl)ethyl]-6-(trifluoromethyl)pyridine-4-carboxamide]
≥ 80%: percent control (mortality or growth inhibition) at 200 ppm (Euschistus heros) | mortality at 12 ppm (Myzus persicae [4]) | percent control (mortality or growth inhibition) at 200 ppm (Plutella xylostella [2]) | mortality at 200 ppm [5] | percent control (mortality or growth inhibition) at 200 ppm (Diabrotica balteata) | percent control (mortality, anti-feedant effect or growth inhibition) at 200 ppm (Spodoptera littoralis) | percent control (mortality, anti-feedant effect or growth inhibition) at 200 ppm (Chilo suppressalis)

CC(NC(=O)c1cc(C(F)(F)F)cc(C2(C#N)CC2)c1)c1nccnc1-c1ncccn1 (centres unmarked) [P25, 3-(1-cyanocyclopropyl)-N-[1-(3-pyrimidin-2-ylpyrazin-2-yl)ethyl]-5-(trifluoromethyl)benzamide]
≥ 80%: mortality at 24 ppm (Myzus persicae [6]) | percent control (mortality or growth inhibition) at 200 ppm (Euschistus heros) | mortality at 12 ppm (Myzus persicae [4]) | mortality at 500 ppm (Plutella xylostella [1]) | percent control (mortality or growth inhibition) at 200 ppm (Plutella xylostella [2]) | mortality at 50 ppm (Myzus persicae [3]) | percent control (mortality or growth inhibition) at 200 ppm (Diabrotica balteata) | percent control (mortality, anti-feedant effect or growth inhibition) at 200 ppm (Spodoptera littoralis) | percent control (mortality, anti-feedant effect or growth inhibition) at 200 ppm (Chilo suppressalis)

CC(NC(=O)c1cc(C(F)(F)F)cc(C2(C#N)CC2)c1)c1nccnc1-c1ccccn1 (centres unmarked) [P22, 3-(1-cyanocyclopropyl)-N-[1-[3-(2-pyridyl)pyrazin-2-yl]ethyl]-5-(trifluoromethyl) benzamide]
≥ 80%: mortality at 500 ppm (Plutella xylostella [1]) | percent control (mortality or growth inhibition) at 200 ppm (Plutella xylostella [2]) | mortality at 50 ppm (Myzus persicae [3]) | percent control (mortality or growth inhibition) at 200 ppm (Diabrotica balteata) | percent control (mortality, anti-feedant effect or growth inhibition) at 200 ppm (Spodoptera littoralis) | percent control (mortality, anti-feedant effect or growth inhibition) at 200 ppm (Chilo suppressalis)

CC(NC(=O)c1cc(C(F)(F)F)cc(S(=O)(=O)C2CC2)c1)c1nccnc1-c1ncccn1 (centres unmarked) [P10, 3-cyclopropylsulfonyl-N-[1-(3-pyrimidin-2-ylpyrazin-2-yl)ethyl]-5-(trifluoromethyl) benzamide]
≥ 80%: mortality at 24 ppm (Myzus persicae [6]) | percent control (mortality or growth inhibition) at 200 ppm (Euschistus heros) | mortality at 12 ppm (Myzus persicae [4]) | percent control (mortality or growth inhibition) at 200 ppm (Plutella xylostella [2]) | mortality at 200 ppm [5] | percent control (mortality, anti-feedant effect or growth inhibition) at 200 ppm (Chilo suppressalis)

CC(NC(=O)c1cc(C(F)(F)F)cc(S(=O)(=O)C(F)(F)F)c1)c1nccnc1-c1ncccn1 (centres unmarked) [P19, N-[1-(3-pyrimidin-2-ylpyrazin-2-yl)ethyl]-3-(trifluoromethyl)-5-(trifluoromethylsulfonyl) benzamide]
≥ 80%: mortality at 12 ppm (Myzus persicae [4]) | mortality at 500 ppm (Plutella xylostella [1]) | percent control (mortality or growth inhibition) at 200 ppm (Plutella xylostella [2]) | mortality at 50 ppm (Myzus persicae [3]) | percent control (mortality or growth inhibition) at 200 ppm (Diabrotica balteata) | percent control (mortality, anti-feedant effect or growth inhibition) at 200 ppm (Spodoptera littoralis) | percent control (mortality, anti-feedant effect or growth inhibition) at 200 ppm (Chilo suppressalis)

CC(NC(=O)c1cc(C2CC2)nc(C(F)(F)F)c1)c1nccnc1-c1ncccn1 (centres unmarked) [P31, 2-cyclopropyl-N-[1-(3-pyrimidin-2-ylpyrazin-2-yl)ethyl]-6-(trifluoromethyl)pyridine-4-carboxamide]
≥ 80%: percent control (mortality or growth inhibition) at 200 ppm (Euschistus heros) | mortality at 12 ppm (Myzus persicae [4]) | percent control (mortality or growth inhibition) at 200 ppm (Plutella xylostella [2]) | mortality at 200 ppm [5] | percent control (mortality or growth inhibition) at 200 ppm (Diabrotica balteata) | percent control (mortality, anti-feedant effect or growth inhibition) at 200 ppm (Spodoptera littoralis) | percent control (mortality, anti-feedant effect or growth inhibition) at 200 ppm (Chilo suppressalis)

CC(NC(=O)c1cc(OC(F)F)cc(S(=O)(=O)C(F)(F)F)c1)c1nccnc1-c1ncccn1 (centres unmarked) [P45, 3-(difluoromethoxy)-N-[1-(3-pyrimidin-2-ylpyrazin-2-yl)ethyl]-5-(trifluoromethylsulfonyl) benzamide]
≥ 80%: percent control (mortality or growth inhibition) at 200 ppm (Plutella xylostella [2]) | percent control (mortality, anti-feedant effect or growth inhibition) at 200 ppm (Spodoptera littoralis) | mortality at 200 ppm (Myzus persicae [7]) | percent control (mortality, anti-feedant effect or growth inhibition) at 200 ppm (Chilo suppressalis)

CC(NC(=O)c1cc(C(F)(F)F)cc(C(C)(C)C#N)c1)c1nccnc1-c1ncccn1 (centres unmarked) [P50, 3-(1-cyano-1-methyl-ethyl)-N-[1-(3-pyrimidin-2-ylpyrazin-2-yl)ethyl]-5-(trifluoromethyl)benzamide]
≥ 80%: mortality at 24 ppm (Myzus persicae [6]) | percent control (mortality or growth inhibition) at 200 ppm (Euschistus heros) | mortality at 12 ppm (Myzus persicae [4]) | percent control (mortality or growth inhibition) at 200 ppm (Plutella xylostella [2]) | percent control (mortality or growth inhibition) at 200 ppm (Diabrotica balteata) | percent control (mortality, anti-feedant effect or growth inhibition) at 200 ppm (Spodoptera littoralis) | percent control (mortality, anti-feedant effect or growth inhibition) at 200 ppm (Chilo suppressalis)

CC(NC(=O)c1cc(C(F)(F)F)nc(C2(C#N)CC2)c1)c1nccnc1-c1ncc(Br)cn1 (centres unmarked) [P55, N-[1-[3-(5-bromopyrimidin-2-yl)pyrazin-2-yl]ethyl]-2-(1-cyanocyclopropyl)-6-(trifluoromethyl)pyridine-4-carboxamide]
≥ 80%: percent control (mortality or growth inhibition) at 200 ppm (Euschistus heros) | mortality at 12 ppm (Myzus persicae [4]) | percent control (mortality or growth inhibition) at 200 ppm (Plutella xylostella [2]) | percent control (mortality or growth inhibition) at 200 ppm (Diabrotica balteata) | percent control (mortality, anti-feedant effect or growth inhibition) at 200 ppm (Spodoptera littoralis) | percent control (mortality, anti-feedant effect or growth inhibition) at 200 ppm (Chilo suppressalis)

CC(NC(=O)c1cc(C(F)(F)F)cc(C(F)(F)C2CC2)c1)c1nccnc1-c1ncccn1 (centres unmarked) [P30, 3-[cyclopropyl(difluoro)methyl]-N-[1-(3-pyrimidin-2-ylpyrazin-2-yl)ethyl]-5-(trifluoromethyl)benzamide]
≥ 80%: percent control (mortality or growth inhibition) at 200 ppm (Euschistus heros) | mortality at 12 ppm (Myzus persicae [4]) | percent control (mortality or growth inhibition) at 200 ppm (Plutella xylostella [2]) | percent control (mortality or growth inhibition) at 200 ppm (Diabrotica balteata) | percent control (mortality, anti-feedant effect or growth inhibition) at 200 ppm (Spodoptera littoralis) | percent control (mortality, anti-feedant effect or growth inhibition) at 200 ppm (Chilo suppressalis)
